Data published in patent US20240252516A1, “COMBINATION BPH THERAPY WITH FEXAPOTIDE TRIFLUTATE, A 5-ARI, AND AN ALPHA BLOCKER” (Nymox Corporation, priority 2023, published 2024).
Ends that are not written are not given here.

Tests used:
BPH patients = conditions: CombAT trial, after 2 years; cited from earlier work
[1] = system: α1- than α2-adrenergic receptors; conditions: α1 versus α2 selectivity; cited from earlier work
patients with BPH = test: Clinical trial in men with BPH: International Prostate Symptom Score (IPSS) change from baseline; assay type: in vivo, human; conditions: oral medication together with placebo PBS injection, >2 years after treatment
Procedure: Clinical trials were conducted on numerous individuals having BPH. All protocols were done in accordance with applicable regulations, and carried out by physicians.
In a study of 978 men, patients with BPH were first administered a course of antibiotics for a period of 2-4 weeks, and then given an intraprostatic injection of either a) 10 ml of FT in phosphate buffered saline (concentration of 0.25 mg/ml), pH 7.2 (“PBS”) or b) PBS alone, under double-blind conditions by a urologist in an office setting under ultrasound guidance. Each patient was followed for a number of years with regular physical examinations, laboratory tests, and evaluations of symptoms. Symptomatic evaluation was measured by the International Prostate Symptom Score (IPSS) which is a quantitative scale used to gauge prostatic symptomatic improvement or worsening. The IPSS quantifies the following: 1) incomplete bladder emptying after urination; 2) frequent urination; 3) stopping and starting during urination; 4) urgent need to urinate; 5) weakness of urinary stream; 6) need to push or strain during urination; 7) need to urinate after going to sleep at night (nocturia). […]
Using the results from the above tables, the average mean IPSS improvement of the respective medications, or combinations of medications can be determined, as well as the percent improvement in mean IPSS when compared to the average of the actives. […]

[2] = system: benign prostatic hyperplasia; conditions: McConnell et al.; cited from earlier work
5α-reductase = conditions: blood; cited from earlier work
[3] = system: prostate glandular epithelial cells; test: Tissue culture genetic array, in vitro pathway activation; assay type: cell-based
Description: FT is a new molecular entity which in vitro stimulates caspase pathways (activation of caspases 7, 8, and 10, caspase recruitment domains 6, 11, and 14, and DIABLO), tumor necrosis factor pathways (activation of TNF1, TNFSF6, TNFSF8, TNFSF9, CD70 ligands, and TNFRSF19L, TNFRSF25, TRAF2, TRAF3, TRAF4, TRAF6 receptors), and BCL pathways (activation of BIK, HRK, BCL2L10 and BCL3) in prostate glandular epithelial cells, based on tissue culture genetic array data. FT selectively causes loss of cell membrane integrity, mitochondrial metabolic arrest, depletion of RNA, DNA lysis and aggregation, and cell fragmentation and cell loss. The apoptotic process leads to typical ultrastructural progressive changes of membranous disruption and swelling, progressively deepening nuclear invaginations with eventual membranous bleb formations and cell death and fragmentation into apoptotic bodies. Histologically, typical apoptotic changes with positive immunohistochemical staining of markers for apoptosis are found throughout the injected areas for up to several weeks after treatment.

Compound: CCOc1ccccc1OCCN[C@H](C)Cc1ccc(OC)c(S(N)(=O)=O)c1 [tamsulosin, (R)-5-(2-{[2-(2-Ethoxyphenoxy)ethyl]amino}propyl)-2-methoxybenzene-1-sulfonamide]
- mean decrease in IPSS from baseline (BPH patients): 4.3

Compound: Cc1ccc(N(CC2=NCCN2)c2cccc(O)c2)cc1 [phentolamine]
- potency in inhibiting α1- than α2-adrenergic receptors [1]: three to five times more potent

Compound: CN1CC(=O)N2[C@H](c3ccc4c(c3)OCO4)c3[nH]c4ccccc4c3C[C@@H]2C1=O [PDE5 Inhibitor, tadalafil]
- Mean IPSS Improvement, oral meds alone (patients with BPH): 4.67

Compound: COc1cc2nc(N3CCN(C(=O)C4COc5ccccc5O4)CC3)nc(N)c2cc1OC (centres unmarked) [doxazosin, 1-(4-amino-6,7-dimethoxy-2-quinazolinyl)-4-[(2,3-dihydro-1,4-benzodioxin-2-yl)carbonyl]piperazine]
- long term (4 year) mean IPSS improvement [2]: 6.6

Compound: CC(C)(C)NC(=O)[C@H]1CC[C@H]2[C@@H]3CC[C@H]4NC(=O)C=C[C@]4(C)[C@H]3CC[C@]12C [finasteride]
- long term (4 year) mean IPSS improvement [2]: 5.6
- reduction in circulating DHT levels (5α-reductase): 65 to 70%

Compound: C[C@]12C=CC(=O)N[C@@H]1CC[C@@H]1[C@@H]2CC[C@]2(C)[C@@H](C(=O)Nc3cc(C(F)(F)F)ccc3C(F)(F)F)CC[C@@H]12 [dutasteride, 17β-N-(2,5-bis(Trifluoromethyl))phenylcarbamoyl-4-aza-5α-androst-1-en-3-one]
- mean decrease in IPSS from baseline (BPH patients): 4.9
- reduction in circulating DHT levels (5α-reductase): up to 98%

Compound: Ile-Asp-Gln-Gln-Val-Leu-Ser-Arg-lle-Lys-Leu-Glu-lle-Lys-Arg-Cys-Leu (IDQQVLSRIKLEIKRCL; also: trifluoroacetate salt) [FT, 1: …]
- BCL pathways (BIK, HRK, BCL2L10, BCL3) [3]: stimulates
- caspase pathways (caspases 7, 8, 10, caspase recruitment domains 6, 11, 14, DIABLO) [3]: stimulates
- tumor necrosis factor pathways (TNF1, TNFSF6, TNFSF8, TNFSF9, CD70 ligands, TNFRSF19L, TNFRSF25, TRAF2, TRAF3, TRAF4, TRAF6 receptors) [3]: stimulates
